Reference: US11229207B2, “Topical avermectin formulations and methods for elimination and prophylaxis of susceptible and treatment resistant strains of head lice” (priority 2006, dated 2022)
“And” between values parts separate entries of the source, which are not always exact repeats. Identical values can stand only once. Like-named read-outs stand apart in the source and are kept apart here.

Tests used:
[1] = tested on: SF-HL strain of permethrin-resistant human head lice; assay: Hair tuft mortality bioassay, permethrin-resistant SF-HL lice; assay type: in vivo, Pediculus humanus capitis; set-up: LT50 (lethal time to 50% mortality): unit not given beside the values; conditions: 10 minute exposure
From the text: The SF-HL strain of permethrin-resistant human head lice (Pediculus humanus capitis, Phthiraptera:Pediculidae) is collected from infested children in Plantation and Homestead, Fla. and is maintained on an in vitro feeding system at the University of Massachusetts at Amherst, Mass. as described by Yoon et al. (2006). Lice are maintained without a human host on the in vitro rearing system from about 24 to about 36 generations. Permethrin-resistant SF-HL are selected periodically using 1% permethrin-treated filter papers (Yoon et al. 2006). Filter papers (35 mm diameter, Whatman No. 1) are immersed into 1% permethrin dissolved in acetone (w/v) for 10 seconds and is air dried in a dark fumehood from about 20 to about 30 minutes. Mixed developmental stages (first instars to adult) are placed on the treated filter paper and exposed for about 5 hours. Surviving lice are transferred back into the feeding system. The SF-HL strain are susceptible to Ovide® (0.5% malathion), but resistant to Nix® (1% permethim) and cross-resistant to DDT treatments. (Moon et al. 2003).
Mortality bioassays are performed to compare lethal time to 50% mortality values (LT50) between the ivermectin formulations, Nix®, and Ovide®. Experimental lice are newly hatched first instars (less than 24 hours old). The lice are randomly taken from the in vitro rearing system, where the lice take an overnight blood meal. Lice (about 30 lice/treatment) are placed on an individual hair tuft (about 300 strands, about 4 cm in length) using sterile forceps, and the treatment is gently rubbed into the hair until saturation occurs.
After a 10 minute exposure period, the hair tuft with lice are washed sequentially in three separate water baths, containing about 10 ml of ddH2O for about 5 seconds each. The washed hair tuft with lice is blotted onto stacks of filter paper and air dried for about 5 minutes. Any lice dislodged during treatment or washing are placed back onto the treated hair tuft. After drying, the treated hair tuft with lice is examined under a dissecting microscope and the number of dead lice is recorded.
A louse is considered dead if it can not right itself when inverted and when its legs have ceased all movements when probed. Treated hair tufts with lice are then placed onto the feeding membrane in the in vitro rearing system and are maintained at 31° C. and 75% humidity. The numbers of dead lice are reassessed at 10 minute intervals until a greater than 90% mortality is achieved. The timing for mortality begins immediately following the 10 minute exposure period. Because of this, mortality is not assessed during the washing and drying intervals (about 5 minutes). Log time versus logit percent mortality regression lines are generated to determine LT50 and LT95 values and maximum log-likelihood ratio tests are performed to test the equality (slope and intercept) of the regression lines (p<0.05, Polo PC, LeOra Software, 1987).
To determine whether ivermectin in formulation performs better than ivermectin alone, blood-fed lice are placed onto 0.5% (w/v) ivermectin formulation-treated hair tufts as described above. Blood-fed lice are also placed onto hair tufts that are treated with 0.5% ivermectin in acetone (acetone is allowed to volatilize in a fumehood for about 1 hour prior to transferring lice to the treated hair tuft), washed, and transferred to the in vitro rearing system as described above.

head lice [2] = conditions: cited from earlier work
SF-HL strain = conditions: Moon et al. 2003; cited from earlier work
head lice [3] = conditions: cited from earlier work; remark: listed apart in the source
[4] = SF-HL lice, Ovide values are estimated times

ivermectin [0.5% (non-formulated)]
LT50 (lethal time to 50% mortality) [1, 4]: 221.8
LT95 [1, 4]: 419.4
times faster than Nix at the LT50 ([1]; SF-HL): 27.9 times
times faster than Nix at the LT95 ([1]; SF-HL): 51.5 times
times faster than ddH2O treatment at the LT50 ([1]; SF-HL): 96.7 times
times faster than ddH2O treatment at the LT95 ([1]; SF-HL): 103.0 times
times faster than placebo formulation at the LT50 ([1]; SF-HL): 31.2 times
times faster than placebo formulation at the LT95 ([1]; SF-HL): 82.4 times

22,23-dihydroavermectin B1a and B1b [ivermectin]
effect against head lice in humans (head lice [2]; single oral 200 μg/kg dose, n=26 (Glaziou et al. 1994)): effective
results against head lice infestation (head lice [2]; single oral dose of 100-200 μg/kg (Dunne et al. 1991)): Positive, but not absolute, results

Clc1ccc(C(c2ccc(Cl)cc2)C(Cl)(Cl)Cl)cc1 [DDT]
status of the SF-HL strain towards the treatment (SF-HL strain): cross-resistant

Cl[C@H]1[C@H](Cl)[C@@H](Cl)[C@@H](Cl)[C@H](Cl)[C@H]1Cl [lindane]
efficacy for treating head lice (head lice [3]; reports in other parts of the world): 61% and 93%
efficacy for treating head lice (head lice [3]; reports in the U.S.): 17%
